Data on seven molecules can be found in article PMC6533912 (Journal of medicinal chemistry, 2018).

The test system of assay [1] is male Sprague–Dawley rats. The assay is described as follows: WAY163909 vs saline drug discrimination assay. The class given is in vivo.
For a further assay, the target named is 5-HT1BR (Homo sapiens, UniProt P28222). The assay is described as follows: NIMH PDSP radioligand displacement. The conditions noted are these: read-out: % inhib (10 μm). Background: Displacement assays read how much labelled ligand stays bound in the presence of the test substance.
Assay [2] concerns male Sprague–Dawley rats. Briefly: Spontaneous locomotor activity. It counts as in vivo. The settings on record: rat.
Assay [3] has as its target T1, human 5-HT2AR (Homo sapiens, UniProt P28223). Briefly: 5-HT-evoked Cai2+ release assay in live h5-HT2AR-CHO cells. The class given is cell-based. The conditions noted are these: 1 pM, 1 nM, 1 μM.
The subject of assay [4] is male Sprague–Dawley rats. The assay is described as follows: Cocaine self-administration cue reactivity test. It counts as in vivo. The conditions noted are these: 1 mg/kg ip, rat.
Assay [5] addresses T2, human 5-HT2CR (unedited INI isoform) (Homo sapiens, UniProt P28335).
T2 sequence (P28335 33-458): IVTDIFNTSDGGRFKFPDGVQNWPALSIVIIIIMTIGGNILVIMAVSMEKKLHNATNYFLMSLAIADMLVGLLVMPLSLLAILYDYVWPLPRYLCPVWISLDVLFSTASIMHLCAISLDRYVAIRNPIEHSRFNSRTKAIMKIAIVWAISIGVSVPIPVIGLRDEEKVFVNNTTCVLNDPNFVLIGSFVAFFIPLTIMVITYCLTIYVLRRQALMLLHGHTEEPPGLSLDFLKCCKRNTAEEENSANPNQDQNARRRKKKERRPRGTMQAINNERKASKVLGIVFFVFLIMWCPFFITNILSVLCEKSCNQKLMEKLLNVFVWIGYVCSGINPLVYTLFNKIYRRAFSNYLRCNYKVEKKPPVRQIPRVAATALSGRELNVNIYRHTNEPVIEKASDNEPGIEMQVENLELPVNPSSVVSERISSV
Briefly: 5-HT-induced Cai2+ release assay in live h5-HT2CR-CHO cells. It counts as cell-based. The settings on record: for allosteric modulator (PAM/NAM) activity on 5-HT-induced Cai2+ release, in words: 1 nM test compound.

The target in assay [6] is norepinephrine transporter (NET) (Homo sapiens, UniProt P23975). Briefly: NIMH PDSP radioligand displacement. The settings on record: 10 μM.
A further assay concerns the target T3, dopamine receptor D4 (Homo sapiens, UniProt P21917).
T3 sequence (P21917 1-419): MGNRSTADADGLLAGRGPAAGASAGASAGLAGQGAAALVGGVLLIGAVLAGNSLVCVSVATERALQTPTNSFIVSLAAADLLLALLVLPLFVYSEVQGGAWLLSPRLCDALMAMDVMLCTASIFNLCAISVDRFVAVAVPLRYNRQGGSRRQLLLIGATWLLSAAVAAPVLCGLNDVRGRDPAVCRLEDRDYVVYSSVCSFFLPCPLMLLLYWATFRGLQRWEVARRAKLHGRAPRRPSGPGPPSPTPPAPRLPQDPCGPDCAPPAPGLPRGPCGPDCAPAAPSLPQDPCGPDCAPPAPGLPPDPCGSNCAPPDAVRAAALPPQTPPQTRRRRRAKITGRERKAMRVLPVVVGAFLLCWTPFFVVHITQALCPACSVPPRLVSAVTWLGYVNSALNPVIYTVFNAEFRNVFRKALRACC
Briefly: NIMH PDSP radioligand displacement. The settings on record: read-out: % inhib (10 μm).

For assay [7], the target named is T2, human 5-HT2CR (unedited INI isoform). The settings on record: cited from earlier work.
Assay [8] addresses T1, human 5-HT2AR. The conditions noted are these: cited from earlier work.

SMILES strings stand for the structures.

T1 sequence (P28223 whole entry): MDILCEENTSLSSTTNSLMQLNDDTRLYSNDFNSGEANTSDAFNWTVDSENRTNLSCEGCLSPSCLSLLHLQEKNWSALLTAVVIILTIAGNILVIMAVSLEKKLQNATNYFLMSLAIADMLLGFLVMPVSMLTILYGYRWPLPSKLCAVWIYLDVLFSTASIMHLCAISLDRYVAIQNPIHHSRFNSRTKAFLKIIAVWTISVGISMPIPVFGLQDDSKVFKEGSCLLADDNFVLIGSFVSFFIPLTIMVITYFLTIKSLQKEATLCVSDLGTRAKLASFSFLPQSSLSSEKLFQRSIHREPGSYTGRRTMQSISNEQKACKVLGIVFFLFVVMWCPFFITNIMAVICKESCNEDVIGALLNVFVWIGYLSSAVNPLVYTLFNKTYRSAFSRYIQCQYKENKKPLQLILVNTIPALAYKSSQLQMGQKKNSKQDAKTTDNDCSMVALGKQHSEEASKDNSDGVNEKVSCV
Sequence of norepinephrine transporter (NET) (P23975 whole entry, species assumed): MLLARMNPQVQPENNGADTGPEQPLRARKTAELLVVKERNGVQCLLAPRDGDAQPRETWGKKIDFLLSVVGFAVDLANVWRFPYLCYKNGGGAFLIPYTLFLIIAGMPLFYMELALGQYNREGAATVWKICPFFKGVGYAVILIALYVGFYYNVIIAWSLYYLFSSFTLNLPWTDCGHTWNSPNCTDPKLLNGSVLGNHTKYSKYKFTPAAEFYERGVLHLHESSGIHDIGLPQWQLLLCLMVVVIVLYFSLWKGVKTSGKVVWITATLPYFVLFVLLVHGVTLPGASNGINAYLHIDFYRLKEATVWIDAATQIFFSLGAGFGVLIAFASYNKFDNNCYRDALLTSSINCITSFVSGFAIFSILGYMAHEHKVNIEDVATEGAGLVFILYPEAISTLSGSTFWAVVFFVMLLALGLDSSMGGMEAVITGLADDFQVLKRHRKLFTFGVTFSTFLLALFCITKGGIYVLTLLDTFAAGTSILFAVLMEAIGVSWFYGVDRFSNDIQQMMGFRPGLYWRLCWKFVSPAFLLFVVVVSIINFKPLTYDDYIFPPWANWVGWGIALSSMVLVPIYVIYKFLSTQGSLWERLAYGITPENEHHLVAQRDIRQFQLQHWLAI
Sequence of 5-HT1BR (P28222 whole entry): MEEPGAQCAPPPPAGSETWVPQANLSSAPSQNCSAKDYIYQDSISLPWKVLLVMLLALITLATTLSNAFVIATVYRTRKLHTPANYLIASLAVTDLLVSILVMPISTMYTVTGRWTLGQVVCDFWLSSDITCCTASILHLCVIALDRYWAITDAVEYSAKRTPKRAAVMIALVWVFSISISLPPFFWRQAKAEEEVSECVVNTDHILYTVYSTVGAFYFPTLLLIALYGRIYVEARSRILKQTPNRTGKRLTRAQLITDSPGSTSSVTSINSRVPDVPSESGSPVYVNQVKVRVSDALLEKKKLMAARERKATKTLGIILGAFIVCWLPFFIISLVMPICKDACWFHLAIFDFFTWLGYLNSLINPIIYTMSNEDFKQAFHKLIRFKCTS

On to `CCCCCCCCCCC[C@@H]1CCN[C@H](C(=O)NCC(O)CO)C1` (relative stereo) [Compound 16, cis-4-Undecylpiperidine-2-carboxylic Acid (2,3-Dihydroxypropyl)amide], for which the “substitution for the WAY163909 stimulus, in words” value in the assay with male Sprague–Dawley rats [1] (0.125–1.0 mg/kg ip, given alone) is “partially substituted for WAY163909”. For the same molecule, the inhibition at 10 µM at 5-HT1BR was -18.1%. Further, in the assay on male Sprague–Dawley rats [2] (1 mg/kg ip), the ambulations entry is reported as “not associated with suppressed ambulations”. Further, in the assay with male Sprague–Dawley rats [2] (5 mg/kg ip), the “mean total ambulations in 30 min vs saline” value is reported as “significantly reduced mean total ambulations” and the “mean total vertical activity in 30 min vs saline” value is “significantly reduced mean total vertical activity”. For the same molecule, on human 5-HT2AR [3], the “change in 5-HT Emax or EC50 at the 5-HT2AR” value is “no change in the 5-HT Emax or EC50”. The “previously active lever presses reinforced by the discrete cue complex vs saline” value in the assay on male Sprague–Dawley rats [4] (15 min before cue reactivity session) is “significantly lower”. For the same molecule, the “inactive lever presses vs saline” value in the assay with male Sprague–Dawley rats [4] is “did not significantly alter inactive lever presses”. In assay [5] (1 pM, 1 nM, 1 μM), the “effect on 5-HT potency (leftward shift of 5-HT curve)” value is on record as “did not impact 5-HT potency” and the “shift of 5-HT-evoked Cai2+ release concentration-response curve” value is given as “upward shift of 5-HT-evoked Cai^2+ release at multiple concentrations”. For the same molecule, in assay [5], the “allosteric modulator (PAM/NAM) activity on 5-HT-induced Cai2+ release, in words” value (“allosteric modulator (PAM/NAM) activity” below) is “significant PAM activity”. The “intrinsic agonist efficacy to induce Cai2+ release in the absence of 5-HT” value in [5] (1 nM, compound alone) was “did not stimulate Cai^2+ release”. Further, the “displacement of radioligand binding” value in assay [6] is reported as “did not displace binding”. The inhibition at 10 µM at dopamine receptor D4 was -14.2%.
On to `CCCCCCCCCCC[C@@H]1CCN[C@H](C(=O)O)C1` [Compound 7, (cis-2,4)-4-Undecylpiperidine-2-carboxylic acid], for which the “allosteric modulator (PAM/NAM) activity” value in assay [5] is “no significant PAM activity”.
As for `CCCCCCCCCCC[C@@H]1CCN[C@H](C(=O)N[C@@H]([C@H]2O[C@H](SC)[C@H](O)[C@@H](O)[C@H]2O)[C@H](C)Cl)C1.Cl` [Compound 1], the “shift of the 5-HT-evoked Cai2+ response curve” value in assay [7] (1 nM, previous titration studies) is on record as “leftward shift of the 5-HT-evoked Cai^2+ response curve”. The “intrinsic agonist activity at the 5-HT2CR” value in assay [7] was “no intrinsic agonist activity”. In addition, the “intrinsic agonist activity at the 5-HT2AR” value on human 5-HT2AR [8] was “no intrinsic agonist activity”.
With `CCCCCCCCCCC[C@@H]1CCN[C@H](C(=O)NC[C@@H](O)CO)C1` (mixture of isomers) [Compound 16a, cis-N-((R)-2,3-Dihydroxypropyl)-4-undecylpiperidine-2-carboxamide], the “allosteric modulator (PAM/NAM) activity” value in [5] was “lacked appreciable PAM activity”.
As to `CCCCCCCCCCC[C@@H]1CCN[C@H](C(=O)NCCO)C1` (relative stereo) [Compound 8, cis-N-(2-Hydroxyethyl)-4-undecylpiperidine-2-carboxamide], the “allosteric modulator (PAM/NAM) activity” value in assay [5] is given as “no significant PAM activity”.
Turning to `c1cc2c3c(c1)[C@H]1CCC[C@H]1N3CCNC2` [WAY163909, (7b-R,10a-R)-1,2,3,4,8,9,10,10a-octahydro-7bH-cyclopenta[b][1,4]diazepino[6,7,1hi]indole], the WAY163909-appropriate responding is approximately 30% in the assay on male Sprague–Dawley rats [1] (0.5 mg/kg ip, given alone) and “Greater than 95%” in the assay on male Sprague–Dawley rats [1] (training dose 0.75 mg/kg ip). Further, in the assay on male Sprague–Dawley rats [1] (ip, rats trained on WAY163909 0.75 mg/kg vs saline, log-probit), the “dose predicted to elicit 50% of WAY163909-lever responding (ED50)” value was 0.53 mg/kg.
In the case of `CCCCCCCCCCC[C@@H]1CCN[C@H](C(=O)NC[C@H](O)CO)C1` (mixture of isomers) [Compound 16b, cis-N-((S)-2,3-Dihydroxypropyl)-4-undecylpiperidine-2-carboxamide], the “allosteric modulator (PAM/NAM) activity” value in [5] is given as “displayed significant PAM activity”.
